Source: paper PMC3121703, “Inhibitory activity of 9-phenylcyclohepta[d]pyrimidinedione derivatives against different strains of HIV-1 as non-nucleoside reverse transcriptase inhibitors” (Virology Journal, 2011)
Read-outs that look alike come from different tables or passages of the source.

How the values were obtained:
HIV-1 SF33 [1] = test: HIV-1 inhibition assay, MT4 cells, p24 ELISA; type: cell-based; conditions: for IC50: Human immunodeficiency virus 1
Experimental: (§1) The inhibitory activity of BmPCP, APCP, BPCP and EPCP on infection by laboratory-adapted HIV-1 strains was tested in TZM-bl cells, MT4 cells or PBMCs, respectively, as previously described. TZM-bl cells were seeded at 10^4/well and cultured in a 96-well tissue culture plate overnight, followed by addition of 200 TCID50 (50% Tissue Culture Infective Dose) of HIV-1 virus. After incubation at 37°C for 2 hrs, BmPCP at graded concentrations was added. After further incubation at 37°C for 48 hrs, the luciferase activity was measured using a luciferase assay kit (Promega Corp.) according to the manufacturer's instructions. MT4 cells (4 × 10^4/well) and PBMCs (1 × 10^5/well) were infected by addition of 200 TCID50 of HIV-1 virus, followed by incubation for 2 hrs at 37°C before addition of BmPCP at serial dilutions. After further incubation at 37°C for 4 days (for MT4 cells) or 7 days (for PBMCs), HIV-1 p24 was measured using a commercial enzyme-linked immunosorbent assay (ELISA) kit (Vironostika HIV-1 Microelisa system; BioMérieux; Marcy l'Etoile, France). The inhibitory activity of BmPCP on infection by primary HIV-1 isolates was also tested in PBMCs as described above. The percent of inhibition and the IC50 were calculated as previously described.

HIV-1 SF33 [2] = test: HIV-1 inhibition assay, TZM-bl cells, luciferase; type: cell-based; conditions: for IC50: Human immunodeficiency virus 1
Experimental: as §1

XTT cytotoxicity assay = type: cell-based; conditions: human
Experimental: (§2) XTT assay was used to test the cytotoxicity of BmPCP on MT4 cells, human PBMCs (non-stimulated) and TZM-bl cells.
(§3) An XTT assay, as previously described, was used for assessing the cytotoxicity of BmPCP to the cells tested for anti-HIV-1 activity. Briefly, BmPCP at graded concentrations was added to MT4 cells, PBMCs, and TZM-bl cells at 4 × 10^4, 1 × 10^5 and 1 × 10^4 cells per well, respectively, followed by an incubation at 37°C for 3 days. Ten microliters of CCK-8 reagent was added to the cells. After incubation at 37°C, for 4 h to allow color development of the XTT formazan product, the absorbance of each well was then read at 450 nm in a Victor2 1420 Multilabel Counter (Wallace-PerkinElmer Life and Analytical Sciences Inc., Boston, MA). The percent of cytotoxicity and CC50 were calculated as previously described.

HIV-1SF33 = test: Time-of-addition assay; type: cell-based; conditions: for Antiviral activity in time-of-addition assay: added eight hours post-infection, BmPCP 13.3 μM, NVP 5 μM
Experimental: Figure 2 Time-of-addition assay of compounds. TZM-bl cells were infected with HIV-1SF33 at 200 TCID50.
MT4 cells were seeded at 10^4/well and cultured in a 96-well tissue culture plate overnight, followed by addition of 200 TCID50 of HIV-1SF33. […] HIV-1 p24 was measured using a commercial enzyme-linked immunosorbent assay (ELISA) kit (Vironostika HIV-1 Microelisa system; BioMérieux; Marcy l'Etoile, France).

HIV-1 SF33 [3] = test: HIV-1 inhibition assay, PBMCs, p24 ELISA; type: cell-based; conditions: for IC50: Human immunodeficiency virus 1, PBMC
Experimental: as §1

[4] = target: HIV-1 reverse transcriptase (Human immunodeficiency virus type 1 group M subtype B, UniProt P04585); test: ELISA RT assay for inhibition of HIV-1 reverse transcriptase activity
Source text: Oligo(dT) 15 was immobilized via its 5'-terminal phosphate to Covalink-NH microtiter plates. The biotin-dUTP was incorporated by reverse transcriptase. The products were detected and quantified using a colorimetric strep- tavidin-alkaline phosphatase reporter system.
Briefly, Oligo(dT) 15 was immobilized via its 5'-terminal phosphate to CovaLink NH microtiter plates. The biotin-dUTP was incorporated by reverse transcriptase. The products were detected and quantified using a colorimetric streptavidin alkaline phosphatase reporter system.

[5] = XTT cytotoxicity assay, summary over cells; type: cell-based; conditions: human, human PBMCs (non-stimulated) and TZM-bl cells, MT4, PBMCs and TZM-bl cells, read-out: CC50, range
Experimental: as §2, §3

HIV-1 = HIV-1 inhibition assays, summary over strains and cells; type: cell-based; conditions: broad spectrum of HIV-1 strains incl. Chinese clinical isolates
Experimental: as §1

HIV-1 XJ0793 = test: Primary HIV-1 isolate inhibition in PBMCs; type: cell-based; conditions: primary isolate XJ0793, subtype B'/C, R5, PBMCs; for IC50: Human immunodeficiency virus 1, PBMC
Experimental: (§4) HIV-1CRF07_BC and B' (Thailand B, a kind variant of subtype B) are two epidemic strains in China. Furthermore, to verify the antiviral activity on China clinical isolates, CRF07_BC and B' were chosen.
as §1

HIV-1 XJ257 = test: Primary HIV-1 isolate inhibition in PBMCs; type: cell-based; conditions: primary isolate XJ257, subtype B'/C, R5, PBMCs; for IC50: Human immunodeficiency virus 1, PBMC
Experimental: as §4, §1

HIV-1 AH968 = test: Primary HIV-1 isolate inhibition in PBMCs; type: cell-based; conditions: primary isolate AH968, subtype B', R5, PBMCs; for IC50: Human immunodeficiency virus 1, PBMC
Experimental: as §4, §1

HIV-1 XJ6291 = test: Primary HIV-1 isolate inhibition in PBMCs; type: cell-based; conditions: for IC50: Human immunodeficiency virus 1, PBMC
Experimental: as §4, §1

HIV-1 AH104 = test: Primary HIV-1 isolate inhibition in PBMCs; type: cell-based; conditions: Human immunodeficiency virus 1, PBMC; primary isolate AH104, subtype B', X4/R5, PBMCs
Experimental: as §4, §1

HIV-1 AH259 = test: Primary HIV-1 isolate inhibition in PBMCs; type: cell-based; conditions: primary isolate AH259, subtype B', R5, PBMCs; for IC50: Human immunodeficiency virus 1, PBMC
Experimental: as §4, §1

HIV-1 1617-1 = test: microbe, parasite or virus in culture; type: cell-based
Experimental: We tested the antiviral activity of BmPCP in three cells including peripheral blood mononuclear cells (PBMCs), TZM-b1 and MT4 cells by using HIV-1SF33 and HIV-1 1617-1, a variant bearing K70G, 184V, 75I, 77L, I16Y and I51M mutations, which are resistant to NRTIs (e.g., d4T, DDI and AZT).
as §1

MT4 cells = test: XTT cytotoxicity assay; type: cell-based
Experimental: as §2, §3

TZM-bl cells = test: XTT cytotoxicity assay; type: cell-based
Experimental: as §2, §3

[6] = Human immunodeficiency virus 1, MT4
[7] = Human immunodeficiency virus 1, PBMC
[8] = Human immunodeficiency virus 1, TZM-bl

Molecule: C=CCn1c2c(c(=O)[nH]c1=O)CCCCC2c1ccccc1 (stereo not drawn) [APCP]
- SI (Selectivity index = CC50/IC50) (HIV-1 SF33 [1]): 2.17
- IC50 (HIV-1 SF33 [1]): 28.6 µM
- SI (Selectivity index = CC50/IC50) (HIV-1 SF33 [2]): 38.46
- IC50 (HIV-1 SF33 [2]): 1.3 µM
- CC50 at 3 days (XTT cytotoxicity assay; MT4 cells): 62 µM
- CC50 at 3 days (XTT cytotoxicity assay; TZM-bl cells): 50 µM

Molecule: O=c1[nH]c(=O)n(Cc2ccccc2)c2c1CCCCC2c1ccccc1 (stereo not drawn) [BPCP]
- SI (Selectivity index = CC50/IC50) (HIV-1 SF33 [1]): 1.15
- IC50 (HIV-1 SF33 [1]): 115 µM
- SI (Selectivity index = CC50/IC50) (HIV-1 SF33 [2]): 20
- IC50 (HIV-1 SF33 [2]): 9 µM
- CC50 at 3 days (XTT cytotoxicity assay; MT4 cells): 132 µM
- CC50 at 3 days (XTT cytotoxicity assay; TZM-bl cells): 180 µM

Molecule: O=c1[nH]c(=O)n(COCc2ccccc2)c2c1CCCCC2c1ccccc1 (stereo not drawn) [BmPCP]
- Antiviral activity in time-of-addition assay (HIV-1SF33): demonstrated antiviral activity
- SI (Selectivity index = CC50/IC50) (HIV-1 SF33 [3]): 67
- IC50 (HIV-1 SF33 [3]): 1.72 ± 0.37 µM
- IC50 [4]: 1.51 µM
- CC50 at 3 days [5]: 90 to 165 µM
- SI (Selectivity index = CC50/IC50) (HIV-1 SF33 [1]): 84
- IC50 (HIV-1 SF33 [1]): 1.96 µM
- IC50, level over HIV-1 strains (HIV-1): low μM levels
- SI (Selectivity index = CC50/IC50) (HIV-1 SF33 [2]): 266
- IC50 (HIV-1 SF33 [2]): 0.34 µM
- IC50 (HIV-1 XJ0793): 0.25 ± 0.03 µM
- SI (Selectivity index = CC50/IC50) (HIV-1 XJ0793): 361
- IC50 (HIV-1 XJ257): 0.53 ± 0.07 µM
- SI (Selectivity index = CC50/IC50) (HIV-1 XJ257): 170
- IC50 (HIV-1 AH968): 0.44 ± 0.17 µM
- SI (Selectivity index = CC50/IC50) (HIV-1 AH968): 205
- IC50 (HIV-1 XJ6291): 0.57 ± 0.02 µM
- SI (Selectivity index = CC50/IC50) (HIV-1 XJ6291; primary isolate XJ6291, subtype B'/C, R5, PBMCs): 158
- IC50 (HIV-1 AH104): 0.59 ± 0.34 µM
- IC50 (HIV-1 AH259): 0.32 ± 0.15 µM
- SI (Selectivity index = CC50/IC50) (HIV-1 AH259): 282
- SI (Selectivity index = CC50/IC50) (HIV-1 1617-1; 1617-1/PBMCs): 65
- SI (Selectivity index = CC50/IC50) (HIV-1 1617-1; 1617-1/TZM-bl): 62
- IC50 (HIV-1 1617-1; [6]): 1.47 ± 0.43 µM
- IC50 (HIV-1 1617-1; [7]): 1.76 ± 0.23 µM
- IC50 (HIV-1 1617-1; [8]): 1.45 ± 0.21 µM
- CC50 (MT4 cells): 165 µM
- CC50 at 3 days (XTT cytotoxicity assay; MT4 cells): 90.3 µM
- CC90 at 3 days (XTT cytotoxicity assay; MT4 cells): 383 ± 53.5 µM
- CC50 at 3 days (XTT cytotoxicity assay; PBMCs (non-stimulated), PBMC): 114 ± 9.38 µM
- CC90 at 3 days (XTT cytotoxicity assay; PBMCs (non-stimulated), PBMC): 229 ± 6.4 µM
- CC50 at 3 days (XTT cytotoxicity assay; TZM-bl cells): 129 µM
- CC90 at 3 days (XTT cytotoxicity assay; TZM-bl cells): 208 ± 8.69 µM
- CC50 (TZM-bl cells): 90.3 µM

Molecule: CCOCn1c2c(c(=O)[nH]c1=O)CCCCC2c1ccccc1 (stereo not drawn) [EPCP]
- SI (Selectivity index = CC50/IC50) (HIV-1 SF33 [1]): 3.9
- IC50 (HIV-1 SF33 [1]): 7.5 µM
- SI (Selectivity index = CC50/IC50) (HIV-1 SF33 [2]): 13.75
- IC50 (HIV-1 SF33 [2]): 1.6 µM
- CC50 at 3 days (XTT cytotoxicity assay; MT4 cells): 29.3 µM
- CC50 at 3 days (XTT cytotoxicity assay; TZM-bl cells): 22 µM

Molecule: Cc1ccnc2c1NC(=O)c1cccnc1N2C1CC1 [NVP, nevirapine, reference compound]
- Antiviral activity in time-of-addition assay (HIV-1SF33): demonstrated antiviral activity
- IC50 (HIV-1 SF33 [3]): 0.69 ± 0.07 µM
- IC50 (HIV-1 SF33 [1]): 0.65 ± 0.23 µM
- IC50 (HIV-1 SF33 [2]): 0.19 ± 0.02 µM
- IC50 (HIV-1 XJ0793): 0.079 ± 0.097 µM
- IC50 (HIV-1 XJ257): 0.211 ± 0.12 µM
- IC50 (HIV-1 AH968): 0.058 ± 0.06 µM
- IC50 (HIV-1 XJ6291; primary isolate XJ6291, subtype B'/C, R5, PBMCs, read-out: IC50): 0.186 ± 0.224 µM
- IC50 (HIV-1 AH104): 0.007 ± 0.003 µM
- IC50 (HIV-1 AH259): 0.007 ± 0.001 µM
- IC50 (HIV-1 1617-1; [6]): 0.44 ± 0.12 µM
- IC50 (HIV-1 1617-1; [7]): 0.57 ± 0.08 µM
- IC50 (HIV-1 1617-1; [8]): 0.16 ± 0.1 µM

Molecule: Enfuvirtide [T20]
- Inhibitory activity in time-of-addition assay (HIV-1SF33; added one hour after viral infection, T-20 5 μM): no inhibitory activity
